Assay results taken from patent US20190292179A1 (BRISTOL-MYERS SQUIBB COMPANY, priority 2016, published 2019).

Key:
[1] = target: T1, HIS-TGFβR1 T204D (Homo sapiens, UniProt P36897, T204D); assay: HTRF probe-displacement assay with HIS-TGFβR1 T204D; assay type: binding; settings: 1 nM HIS-TGFβR1 T204D, labeled probe at Kd, 1 hour at room temperature
T1 sequence (P36897 34-503 T204D): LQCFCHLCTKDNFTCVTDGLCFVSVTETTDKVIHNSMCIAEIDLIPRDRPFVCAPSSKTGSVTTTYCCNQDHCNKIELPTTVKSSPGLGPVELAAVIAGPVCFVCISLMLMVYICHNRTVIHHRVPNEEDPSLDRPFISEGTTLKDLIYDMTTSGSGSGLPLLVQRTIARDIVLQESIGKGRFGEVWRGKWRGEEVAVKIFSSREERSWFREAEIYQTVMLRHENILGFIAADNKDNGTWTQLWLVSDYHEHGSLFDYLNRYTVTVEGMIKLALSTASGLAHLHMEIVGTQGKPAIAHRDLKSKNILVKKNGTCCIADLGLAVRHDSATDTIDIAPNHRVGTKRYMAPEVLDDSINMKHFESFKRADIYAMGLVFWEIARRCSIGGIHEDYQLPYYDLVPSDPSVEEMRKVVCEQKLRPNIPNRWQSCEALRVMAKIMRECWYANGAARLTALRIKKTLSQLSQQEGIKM
In short: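 Binding read as HTRF probe displacement with 1 nM HIS-tagged kinase, 0.2 nM anti-HIS antibody, labelled probe at Kd and 0.5% DMSO, 1 h at room temperature (Ex 340, Em 520/495 nm). Eleven-point dose response normalised to no-enzyme and vehicle controls; IC50 from non-linear regression.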

[2] = target: HIS-TGFβR2 WT (Homo sapiens, UniProt P37173); assay: HTRF probe-displacement assay with HIS-TGFβR2 WT; assay type: binding; settings: 1 nM HIS-TGFβR2 WT, labeled probe at Kd, 1 hour at room temperature
Method: The reaction is incubated for 1 hour at room temperature and the HTRF signal was measured on an Envision plate reader (Ex: 340 nm; Em: 520 nm/495 nm). Inhibition data were calculated by comparison to no enzyme control reactions for 100% inhibition and vehicle-only reactions for 0% inhibition. The final concentration of reagents in the assay are 1 nM HIS-TGFβR1 T204D or HIS-TGFβR2 WT, 0.2 nM anti-HIS detection antibody, labeled small molecule probe (at Kd) and 0.5% DMSO. Dose response curves were generated to determine the concentration required inhibiting 50% of kinase activity (IC50). Compounds were dissolved at 10 mM in dimethylsulfoxide (DMSO) and evaluated at eleven concentrations. IC50 values were derived by non-linear regression analysis.

Sequence of HIS-TGFβR2 WT (P37173 23-567): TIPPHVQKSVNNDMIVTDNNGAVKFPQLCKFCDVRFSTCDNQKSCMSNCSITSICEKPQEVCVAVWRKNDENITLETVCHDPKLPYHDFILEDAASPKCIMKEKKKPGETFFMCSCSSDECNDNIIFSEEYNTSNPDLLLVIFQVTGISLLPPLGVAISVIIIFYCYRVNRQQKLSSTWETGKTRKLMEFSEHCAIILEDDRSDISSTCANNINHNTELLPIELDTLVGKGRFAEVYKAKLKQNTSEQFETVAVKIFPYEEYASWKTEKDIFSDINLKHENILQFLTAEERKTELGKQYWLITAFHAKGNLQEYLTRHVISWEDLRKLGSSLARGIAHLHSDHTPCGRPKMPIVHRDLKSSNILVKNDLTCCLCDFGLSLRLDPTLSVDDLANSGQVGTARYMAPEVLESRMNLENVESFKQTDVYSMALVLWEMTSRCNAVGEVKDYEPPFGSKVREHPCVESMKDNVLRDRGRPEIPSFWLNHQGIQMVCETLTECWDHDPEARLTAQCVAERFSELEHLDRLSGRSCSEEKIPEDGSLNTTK

| Structure (SMILES) | IC50 [1] [µM] | IC50 [2] [µM] |
| --- | --- | --- |
| N#CCn1cc(-c2ccc3ncc(C#N)n3c2)c(-c2ccc(F)c(Cl)c2)n1 [Example 43, 6-(3-(3-chloro-4-fluorophenyl)-1-(cyanomethyl)-1H-pyrazol-4-yl)imidazo[1,2-a]pyridine-3-carbonitrile] | 0.001 | 0.463 |
| N#Cc1cnc2ccc(-c3cn(CCO)nc3-c3ccc(F)c(Cl)c3)cn12 [Example 44, 6-(3-(3-chloro-4-fluorophenyl)-1-(2-hydroxyethyl)-1H-pyrazol-4-yl)imidazo[1,2-a]pyridine-3-carbonitrile] | 0.002 | 0.369 |
| Clc1ccc(-c2n[nH]cc2-c2ccc3nccn3c2)cc1 [Example 45, 6-(3-(4-chlorophenyl)-1H-pyrazol-4-yl)imidazo[1,2-a]pyridine] | 0.112 | 4.23 |
| N#Cc1cnc2ccc(-c3c[nH]nc3-c3ccc(Cl)cc3)cn12 [Example 46, 6-(3-(4-chlorophenyl)-1H-pyrazol-4-yl)imidazo[1,2-a]pyridine-3-carbonitrile] | 0.092 | 0.214 |
| NC(=O)c1cnc2ccc(-c3c[nH]nc3-c3ccc(Cl)cc3)cn12 [Example 47, 6-(3-(4-chlorophenyl)-1H-pyrazol-4-yl)imidazo[1,2-a]pyridine-3-carboxamide] | 0.004 | 0.709 |
| Cc1cc(-c2n[nH]cc2-c2ccc3nccn3c2)ccc1F [Example 48, 6-(3-(4-fluoro-3-methylphenyl)-1H-pyrazol-4-yl)imidazo[1,2-a]pyridine] | 0.002 | 4.12 |
| Cc1cc(-c2n[nH]cc2-c2ccc3ncc(C#N)n3c2)ccc1F [Example 49, 6-(3-(4-fluoro-3-methylphenyl)-1H-pyrazol-4-yl)imidazo[1,2-a]pyridine-3-carbonitrile] | 0.001 | 0.104 |
| CCOC(=O)c1cnc2ccc(-c3cn(C)nc3-c3cccc(C)n3)cn12 [Example 51, ethyl 6-(1-methyl-3-(6-methylpyridin-2-yl)-1H-pyrazol-4-yl)imidazo[1,2-a]pyridine-3-carboxylate] | 0.001 | 2.23 |
| Fc1ccc(-c2n[nH]cc2-c2ccc3nccn3n2)cc1 [Example 55, 6-(3-(4-fluorophenyl)-1H-pyrazol-4-yl)imidazo[1,2-b]pyridazine] | 0.006 | 4.93 |
| Fc1ccc(-c2n[nH]cc2-c2ccc3ncc(F)n3c2)cc1 [Example 56, 3-fluoro-6-(3-(4-fluorophenyl)-1H-pyrazol-4-yl)imidazo[1,2-a]pyridine] | 0.007 | 0.533 |
| CCOC(=O)c1cnc2ccc(-c3c[nH]nc3-c3ccc(F)cc3)cn12 [Example 57, ethyl 6-(3-(4-fluorophenyl)-1H-pyrazol-4-yl)imidazo[1,2-a]pyridine-3-carboxylate] | 0.003 | 3.71 |
| CC(C)(O)c1cnc2ccc(-c3c[nH]nc3-c3ccc(F)cc3)cn12 [Example 59, 2-(6-(3-(4-fluorophenyl)-1H-pyrazol-4-yl)imidazo[1,2-a]pyridin-3-yl)propan-2-ol] | 0.241 | 5.34 |
| N#Cc1cnc2ccc(-c3cn(CC(F)F)nc3-c3ccc(F)c(Cl)c3)cn12 [Example 61, 6-(3-(3-chloro-4-fluorophenyl)-1-(2,2-difluoroethyl)-1H-pyrazol-4-yl)imidazo[1,2-a]pyridine-3-carbonitrile] | 0.007 | 2.28 |
| Cc1cccc(-c2n[nH]c(C)c2-c2ccc3ncc(C(N)=O)n3c2)n1 [Example 64, 6-(5-methyl-3-(6-methylpyridin-2-yl)-1H-pyrazol-4-yl)imidazo[1,2-a]pyridine-3-carboxamide] | 0.001 | 0.012 |
| Cc1cccc(-c2nn(C)c(C)c2-c2ccc3ncc(C(N)=O)n3c2)n1 [Example 65, 6-(1,5-dimethyl-3-(6-methylpyridin-2-yl)-1H-pyrazol-4-yl)imidazo[1,2-a]pyridine-3-carboxamide] | 0.001 | 0.194 |
| Cc1[nH]nc(-c2cccc(F)n2)c1-c1ccc2ncc(C#N)n2c1 [Example 66, 6-(3-(6-fluoropyridin-2-yl)-5-methyl-1H-pyrazol-4-yl)imidazo [1,2-a]pyridine-3-carbonitrile] | 0.001 | 0.277 |
| CC(C)c1[nH]nc(-c2ccc(F)cc2)c1-c1ccc2ncc(C#N)n2c1 [Example 67, 6-(3-(4-fluorophenyl)-5-isopropyl-1H-pyrazol-4-yl)imidazo[1,2-a]pyridine-3-carbonitrile] | 0.004 | 11.1 |
| CC(C)c1[nH]nc(-c2ccc(F)cc2)c1-c1ccc2ncc(C(N)=O)n2c1 [Example 68, 6-(3-(4-fluorophenyl)-5-isopropyl-1H-pyrazol-4-yl) imidazo [1,2-a]pyridine-3-carboxamide] | 0.001 | 0.176 |
| CC(C)c1[nH]nc(-c2ccc(F)cc2)c1-c1ccc2[nH]ncc2c1 [Example 70, 5-(3-(4-fluorophenyl)-5-isopropyl-1H-pyrazol-4-yl)-1H-indazole] | 0.001 | 6.1 |

Other lines, results leading:

| IC50 [1] [µM] | IC50 [2] [µM] | Structure (SMILES) |
| --- | --- | --- |
| 0.002 | 0.963 | CC(C)c1c(-c2ccc3ncc(C(N)=O)n3c2)c(-c2ccc(F)cc2)nn1C [Example 72] |
| 0.001 | 6.59 | CC(C)c1[nH]nc(-c2ccc(Cl)cc2)c1-c1ccc2ncc(C(N)=O)n2c1 [Example 76, 6-(3-(4-chlorophenyl)-5-isopropyl-1H-pyrazol-4-yl)imidazo[1,2-a]pyridine-3-carboxamide] |
| 0.001 | 6.67 | Cc1cc(-c2n[nH]c(C(C)C)c2-c2ccc3ncc(C#N)n3c2)ccc1F [Example 78, 6-(3-(4-fluoro-3-methylphenyl)-5-isopropyl-1H-pyrazol-4-yl)imidazo[1,2-a]pyridine-3-carbonitrile] |
| 0.001 | 0.136 | Cc1cc(-c2n[nH]c(C(C)C)c2-c2ccc3ncc(C(N)=O)n3c2)ccc1F [Example 79, 6-(3-(4-fluoro-3-methylphenyl)-5-isopropyl-1H-pyrazol-4-yl)imidazo[1,2-a]pyridine-3-carboxamide] |
| 0.003 | 2.68 | N#Cc1cnc2ccc(-c3c(-c4ccc(F)cc4)n[nH]c3C3CC3)cn12 [Example 84, 6-(5-cyclopropyl-3-(4-fluorophenyl)-1H-pyrazol-4-yl)imidazo[1,2-a]pyridine-3-carbonitrile] |
| 0.004 | 14.6 | Fc1ccc(-c2n[nH]c(C3CC3)c2-c2ccc3nccn3c2)cc1 [Example 86, 6-(5-cyclopropyl-3-(4-fluorophenyl)-1H-pyrazol-4-yl)imidazo [1,2-a]pyridine] |
| 0.002 | 6.9 | Fc1ccc(-c2n[nH]c(C3CC3)c2-c2ccc3nccn3n2)cc1 [Example 87, 6-(5-cyclopropyl-3-(4-fluorophenyl)-1H-pyrazol-4-yl)imidazo [1,2-b]pyridazine] |
| 0.001 | 2.65 | O=C(NC1CC1)c1cnc2ccc(-c3c(-c4ccc(F)cc4)n[nH]c3C3CC3)cn12 [Example 92, N-cyclopropyl-6-(5-cyclopropyl-3-(4-fluorophenyl)-1H-pyrazol-4-yl)imidazo[1,2-a]pyridine-3-carboxamide] |
| 0.001 | 0.806 | Cn1nc(-c2ccc(F)cc2)c(-c2ccc3ncc(C(N)=O)n3c2)c1C1CC1 [Example 94, 6-(5-cyclopropyl-3-(4-fluorophenyl)-1-methyl-1H-pyrazol-4-yl)imidazo[1,2-a]pyridine-3-carboxamide] |
| 0.001 | 6.36 | NC(=O)c1cnc2ccc(-c3c(-c4ccc(Cl)cc4)n[nH]c3C3CC3)cn12 [Example 97, 6-(3-(4-chlorophenyl)-5-cyclopropyl-1H-pyrazol-4-yl)imidazo[1,2-a]pyridine-3-carboxamide] |
| 0.001 | 2.98 | Cc1cc(-c2n[nH]c(C3CC3)c2-c2ccc3ncc(C#N)n3c2)ccc1F [Example 99, 6-(5-cyclopropyl-3-(4-fluoro-3-methylphenyl)-1H-pyrazol-4-yl)imidazo[1,2-a]pyridine-3-carbonitrile] |
| 0.001 | 0.094 | Cc1cc(-c2n[nH]c(C3CC3)c2-c2ccc3ncc(C(N)=O)n3c2)ccc1F [Example 100, 6-(5-cyclopropyl-3-(4-fluoro-3-methylphenyl)-1H-pyrazol-4-yl)imidazo[1,2-a]pyridine-3-carboxamide] |
| 0.001 | 6.66 | NC(=O)c1cnc2ccc(-c3c(-c4ccc(F)cc4)n[nH]c3C(F)(F)F)cn12 [Example 106, 6-(3-(4-fluorophenyl)-5-(trifluoromethyl)-1H-pyrazol-4-yl)imidazo[1,2-a]pyridine-3-carboxamide] |
